Results taken from US10213415B2, “Compounds as opioid receptor modulators” (JANSSEN PHARMACEUTICA NV, priority 2004, dated 2019).

Tests used:
[1] = molecular target: T1, mu opioid receptor (CHO-hMOR cell membranes) (Homo sapiens, UniProt P35372); assay: Mu Opioid Receptor Functional Assay: [35S]GTPγS Binding in CHO-hMOR Cell Membranes, Versions 1 and 2; type: biochemical; conditions: for MOR GTP binding assay_v1 (% I): version 1, % inhibition of agonist-stimulated GTPγS binding; for MOR GTP assay_v1 % of Basal: version 1, basal binding = 100%
T1 construct: purchased Receptor Biology, Inc. (Baltimore, Md.); host or cells: CHO cells (recombinant expression)
Procedure, shortened: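 CHO-hMOR membranes (10 μg/ml) on WGA SPA beads, preincubated 45 min at 25 °C, then incubated with 0.5 nM [35S]GTPγS in HEPES pH 7.6, 5 mM MgCl2, 100 mM NaCl, 1 mM DTT, 1 mM EDTA. Non-specific binding with 10 μM unlabeled GTPγS; agonist EC50 from concentration-response, antagonism as inhibition of 1 μM SNC80-stimulated binding.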

delta opioid receptor [2] = molecular target: T2, delta opioid receptor (Rattus norvegicus, UniProt P33533); assay: Rat Brain Delta Opioid Receptor Binding Assay ([3H]DPDPE); conditions: rat forebrain membranes, margin of error 10-20%, read-out: r Ki δ
T2 construct: from tissue; host or cells: forebrain of male Wistar rats
Procedure, shortened: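 Rat (male Wistar) forebrain membranes in 50 mM Tris-HCl pH 7.4 with 5 mM MgCl2, incubated with ~4 nM [3H]DPDPE for 2.5 h at 25 °C. Bound ligand collected by filtration and scintillation counting. Single-concentration data given as % inhibition of specific binding; concentration series fitted to Ki.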

mu opioid receptor = molecular target: T3, mu opioid receptor (Rattus norvegicus, UniProt P33535); assay: Rat Brain Mu Opioid Receptor Binding Assay (and Version 2a, [3H]DAMGO); conditions: rat forebrain membranes, margin of error 10-20%, read-out: r Ki μ
T3 construct: from tissue; host or cells: forebrain of male Wistar rats
Procedure, shortened: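 Rat forebrain membranes from male Wistar rats in 50 mM Tris-HCl pH 7.4 with 5 mM MgCl2 incubated with 0.8 nM [3H]DAMGO for 2.5 h at 25° C., then filtered and counted. Data given as % inhibition of specific binding at single concentrations or as Ki from concentration series.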

[3] = molecular target: T4, delta opioid receptor (CHO-hδ cell membranes) (Homo sapiens, UniProt P41143); assay: Delta Opioid Receptor Functional Assay: [35S]GTPγS Binding in CHO-hδ Cell Membranes, Version 1; type: biochemical; conditions: read-out: DOR GTP-binding Assay_v1 EC50
T4 construct: purchased Receptor Biology, Inc. (Baltimore, Md.); host or cells: CHO cells (recombinant expression)
Description: CHO-hδ cell membranes were purchased from Receptor Biology, Inc. (Baltimore, Md.). 10 mg/ml of membrane protein suspended in 10 mM TRIS-HC pH 7.2, 2 mM EDTA, 10% sucrose.
(§1) Membranes were maintained at 4-8° C. A portion (1 ml) of membranes was added into 15 mL cold binding assay buffer. The assay buffer contained 50 mM HEPES, pH 7.6, 5 mM MgCl2, 100 mM NaCl, 1 mM DTT and 1 mM EDTA. The membrane suspension was homogenized with a Polytron for 2 times and centrifuged at 3000 rpm for 10 min. The supernent was then centrifuged at 18,000 rpm for 20 min. The pellet was saved in a tube and 10 ml assay buffer was added into the tube. The pellet and buffer were mixed with a Polytron.
The pellet membranes (20 μg/ml) were preincubated with SPA (10 mg/ml) at 25° C. for 45 min in the assay buffer. The SPA (5 mg/ml) coupled with membranes (10 μg/ml) was then incubated with 0.5 nM [^35S]GTPγS in the same HEPES buffer containing 50 μM GDP in total volume of 200 μl. Increasing concentrations of receptor agonists were used to stimulate [^35S]GTPγS binding. The basal binding was tested in the absent agonists and no specific binding was tested in the present 10 μM unlabeled GTPγS. The data were analyzed on a Top counter.
Data The % of Basal=(stimulate−non specific)*100/(basal−non specific). EC50 values were calculated using a Prism program.

delta opioid receptor [4] = molecular target: T2, delta opioid receptor; assay: Rat Brain Delta Opioid Receptor Binding Assay-Version 1a ([3H]naltrindole); conditions: rat forebrain membranes, 0.1 nM [3H]naltrindole; margin of error 10-20%; read-out: r Ki δ Ver. 1a
Description: Male, Wistar rats (150-250 g, VAF, Charles River, Kingston, N.Y.) were killed by cervical dislocation, and their brains removed and placed immediately in ice-cold Tris HCl buffer (50 mM, pH 7.4). The forebrains were separated from the remainder of the brain by a coronal transection, beginning dorsally at the colliculi and passing ventrally through the midbrain-pontine junction. After dissection, the forebrains were homogenized in Tris buffer in a Teflon®-glass homogenizer. The homogenate was diluted to a concentration of 1 g of forebrain tissue per 80 mL Tris and centrifuged at 39,000×g for 10 min. The pellet was resuspended in the same volume of Tris buffer containing 5 mM MgCl2 with several brief pulses from a Polytron homogenizer. This particulate preparation was used for the delta opioid binding assay. Following incubation with 0.1 nM of the delta selective ligand [^3H]naltrindole at 25° C. for 2.5 h in a 96-well plate with total 1 mL, the plate contents were filtered through Wallac filtermat B sheets on a Tomtec 96-well harvester. The filters were rinsed three times with 2 mL of 10 mM HEPES (pH 7.4), and dried in a microwave oven. To each sample area, Betaplate Scint scintillation fluid (LKB) was added and the resulting radioactivity quantified on a LKB (Wallac) 1205 BetaPlate liquid scintillation counter. Kd and Ki values were calculated using the GraphPad PRISM data analysis program.

[5] = molecular target: T5, human delta subtype 2 opioid receptor (Homo sapiens, UniProt P41143); assay: Human Delta Opioid Receptor Binding Assay (CHO membranes, 3H-Naltrindole); conditions: read-out: hKi δ
T5 construct: purchased Perkin Elmer RBHODM400UA; host or cells: Chinese Hamster Ovary cells (recombinant expression)
Procedure, shortened: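 Filtration binding on CHO-cell membranes expressing the human receptor, in 50 mM Tris pH 7.5 with 5 mM MgCl2, 30 min at room temperature; 3H-naltrindole diluted to 6 nM before mixing 1:1 with compound. Nonspecific binding defined with 1 μM unlabelled naltrindole; inhibition relative to no-inhibitor wells.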

human mu opioid receptor = molecular target: T6, human mu opioid receptor (Homo sapiens, UniProt P35372); assay: Human Mu Opioid Receptor Binding Assay (CHO membranes, 3H-Damgo); conditions: read-out: hKi μ
T6 construct: purchased Perkin Elmer RBHOMM400UA; host or cells: Chinese Hamster Ovary cells (recombinant expression)
Procedure, shortened: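 Membranes from CHO cells expressing human mu opioid receptor, 300 μg/mL, in 50 mM Tris pH 7.5, 5 mM MgCl2. Incubated with compound and ³H-Damgo (3.6 nM before mixing) for 2 h at room temperature, filtered, counted by scintillation. Nonspecific binding with 1 μM unlabelled Damgo.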

[6] = molecular target: T7, delta opioid receptor (NG108-15 cell membranes) (Mus musculus, UniProt P32300); assay: Delta Opioid Receptor Functional Assay: [35S]GTPγS Binding in NG108-15 Cell Membranes, Version 2; type: biochemical; conditions: NG108-15 cell membranes, version 2
T7 construct: NG108-15 cell membranes were purchased from Applied Cell Sciences (Rockville, Md.); host or cells: NG108-15 cells (membranes purchased)
Description: NG108-15 cell membranes were purchased from Applied Cell Sciences (Rockville, Md.). 8 mg/ml of membrane protein suspended in 10 mM TRIS-HC pH 7.2, 2 mM EDTA, 10% sucrose.
as §1, with “10 ml” for “15 mL”, “Tris,” for “HEPES,”, “EGTA.” for “EDTA.”
The pellet membranes (75 μg/ml) were preincubated with SPA (10 mg/ml) at 25° C. for 45 min in the assay buffer. The SPA (5 mg/ml) coupled with membranes (37.5 μg/ml) was then incubated with 0.1 nM [^35S] GTPγS in the same Tris buffer containing 100 μM GDP in total volume of 200 μl. Increasing concentrations of receptor agonists were used to stimulate [^35S] GTPγS binding. The basal binding was tested in the absent agonists and no specific binding was tested in the present 10 μM unlabeled GTPγS. The data were analyzed on a Top counter.
[formula] % Inhibition=(% stimulation by 1 μM SNC80−% stimulation by 1 μM SNC80 in presence of test compound)×100/(% Stimulation by 1 μM SNC80−100) % of Basal=(stimulate−non specific)*100/(basal−non specific). EC50 values were calculated using GraphPad Prism.

male CD-1 mice = assay: In Vivo Assay: Upper GI Tract Transit (MUGIT); conditions: Mus musculus, po, 1 h, dose 30 (mg), p.o., read-out: upper GI transit (% ctrl)
Description: Methods: The animals used in these studies were male CD-1 mice, ave. wt. ˜30 g. Mice were housed under 12 h/12 h light/dark cycle, food & water ad lib. On the day of the experiment mice were assigned to experimental groups, including one vehicle-only group (=control). At 30 min before administration of carmine dye, animals were dosed with vehicle or vehicle-plus-compound, mice were returned to their home cages after drug administration. After administration of carmine, the animals were either returned to their home cages (non-stressed) or individually placed in the same metal cages as used in the fecal output or entire GI tract transit to induce a novel environment stress. One hour after administration of carmine, mice were sacrificed by cervical dislocation, the abdomen opened midventrally, the small intestine from pylorus to cecum was removed, the mesentery divided in order to lay the intestine straight & flat—without stretching. The total length of intestine and the length of carmine-dyed intestine were measured in order to determine the percent of the upper GI tract over which transit had occurred as follows: {(Length of carmine-dyed intestine)/(Total length of intestine)}×100=% upper GI transit. The data expressed were group means±SD (or s.e.m.) and data expressed as % of control.

T4 sequence (P41143 whole entry): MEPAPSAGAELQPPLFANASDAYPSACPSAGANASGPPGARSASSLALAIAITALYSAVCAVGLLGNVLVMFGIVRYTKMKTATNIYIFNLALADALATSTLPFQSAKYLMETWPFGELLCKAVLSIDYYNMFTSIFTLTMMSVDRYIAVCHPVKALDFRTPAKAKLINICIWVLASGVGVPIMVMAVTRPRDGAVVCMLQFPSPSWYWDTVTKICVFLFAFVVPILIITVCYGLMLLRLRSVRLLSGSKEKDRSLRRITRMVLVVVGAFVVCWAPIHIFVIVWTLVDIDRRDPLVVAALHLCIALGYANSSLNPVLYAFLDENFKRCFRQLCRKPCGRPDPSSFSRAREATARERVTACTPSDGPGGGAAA
T5 sequence (P41143 whole entry): as above
T2 sequence (P33533 whole entry): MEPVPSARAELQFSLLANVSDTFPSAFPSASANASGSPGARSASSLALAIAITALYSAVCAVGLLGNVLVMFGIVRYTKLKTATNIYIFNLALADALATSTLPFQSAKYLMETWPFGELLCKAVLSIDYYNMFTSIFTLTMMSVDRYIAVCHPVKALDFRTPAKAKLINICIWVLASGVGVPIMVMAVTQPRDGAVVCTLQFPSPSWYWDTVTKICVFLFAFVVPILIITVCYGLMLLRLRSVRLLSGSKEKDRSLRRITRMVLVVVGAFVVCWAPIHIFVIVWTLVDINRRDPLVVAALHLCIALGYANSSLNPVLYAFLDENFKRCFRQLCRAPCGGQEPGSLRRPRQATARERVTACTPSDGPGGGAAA
T6 sequence (P35372 whole entry): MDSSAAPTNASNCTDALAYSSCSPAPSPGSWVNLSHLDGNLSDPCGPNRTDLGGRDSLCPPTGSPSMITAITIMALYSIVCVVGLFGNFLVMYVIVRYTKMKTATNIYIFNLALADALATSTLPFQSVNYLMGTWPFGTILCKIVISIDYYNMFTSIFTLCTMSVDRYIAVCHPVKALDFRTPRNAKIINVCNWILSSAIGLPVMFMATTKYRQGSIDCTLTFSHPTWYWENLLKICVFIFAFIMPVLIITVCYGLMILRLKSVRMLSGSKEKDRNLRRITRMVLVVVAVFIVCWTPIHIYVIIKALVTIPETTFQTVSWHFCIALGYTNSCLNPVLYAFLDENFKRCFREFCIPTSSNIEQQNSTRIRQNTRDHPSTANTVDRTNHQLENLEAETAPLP
T1 sequence (P35372 whole entry): as above
T3 sequence (P33535 whole entry): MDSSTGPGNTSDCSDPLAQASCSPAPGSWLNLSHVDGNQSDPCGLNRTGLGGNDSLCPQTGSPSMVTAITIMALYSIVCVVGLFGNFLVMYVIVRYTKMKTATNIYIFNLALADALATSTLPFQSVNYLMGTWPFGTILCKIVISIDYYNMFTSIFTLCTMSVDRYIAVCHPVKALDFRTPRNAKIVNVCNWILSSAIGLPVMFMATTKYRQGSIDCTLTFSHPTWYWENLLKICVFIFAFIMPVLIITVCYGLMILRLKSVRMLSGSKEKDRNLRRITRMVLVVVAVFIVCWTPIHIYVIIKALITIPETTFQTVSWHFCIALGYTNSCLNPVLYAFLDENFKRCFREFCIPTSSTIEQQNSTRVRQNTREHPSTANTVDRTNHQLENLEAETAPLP
T7 sequence (P32300 whole entry): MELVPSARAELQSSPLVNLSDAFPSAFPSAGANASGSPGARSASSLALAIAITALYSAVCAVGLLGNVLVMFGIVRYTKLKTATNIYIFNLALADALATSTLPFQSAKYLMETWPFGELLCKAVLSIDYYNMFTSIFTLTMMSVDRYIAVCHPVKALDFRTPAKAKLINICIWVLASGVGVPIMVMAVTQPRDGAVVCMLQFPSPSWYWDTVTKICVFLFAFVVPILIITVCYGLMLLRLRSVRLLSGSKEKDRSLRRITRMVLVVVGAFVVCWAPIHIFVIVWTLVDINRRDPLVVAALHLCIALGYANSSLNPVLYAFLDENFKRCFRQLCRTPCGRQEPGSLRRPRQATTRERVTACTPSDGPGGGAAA

Row | SMILES | MOR GTP binding assay_v1 (% I) [1] [%] | MOR GTP assay_v1 % of Basal [1] [%] | Ki (mu opioid receptor) [nM] | EC50 [3] [nM] | Ki (delta opioid receptor [4]) [nM] | Ki [5] [nM] | also measured
1 | CCN(C(=O)[C@@H](N)Cc1c(C)cc(C(N)=O)cc1C)[C@@H](C)c1nc(-c2ccccc2)c[nH]1 [Cpd 197] | 1.00 | 582.00 | 0.9 | 140 | – | – | Ki (delta opioid receptor [2]): 4.27 nM
2 | C[C@@H](c1nc(-c2ccccc2)c[nH]1)N(C)C(=O)[C@@H](N)Cc1ccc(C(N)=O)cc1 [Cpd 202] | 1.00 | 529.00 | 5.9 | 1580 | – | – | Ki (delta opioid receptor [2]): 31.5 nM
3 | COc1ccc(CN(C(=O)[C@@H](N)Cc2c(C)cc(O)cc2C)[C@@H](C)c2nc(-c3ccccc3)c[nH]2)cc1C(=O)Nc1cccc(C(=O)O)c1 [Cpd 306] | – | – | 0.9 | – | 0.18 | – | –
4 | COc1ccc(CN(C(=O)[C@@H](N)Cc2c(C)cc(O)cc2C)[C@@H](C)c2nc(-c3ccccc3)c[nH]2)cc1C(=O)Nc1ccc(C(=O)O)cc1 [Cpd 308] | – | – | 1.2 | – | 0.48 | – | –
5 | COc1ccc(CN(C(=O)[C@@H](N)Cc2c(C)cc(O)cc2C)[C@@H](C)c2nc(-c3ccccc3)c[nH]2)cc1-c1nnn[nH]1 [Cpd 307] | – | – | 0.4 | – | 0.07 | – | –
6 | Cc1cc(O)cc(C)c1C[C@H](N)C(=O)N(Cc1nc(-c2ccc3ccccc3c2)c(C)[nH]1)C(C)C [Cpd 150] | 53.35 | 476.63 | – | 49 | – | 992 | –
7 | Cc1cc(O)cc(C)c1C[C@H](N)C(=O)N(Cc1nc(-c2cncnc2)c(C)[nH]1)C(C)C [Cpd 131] | 28.64 | 391.98 | – | 99 | – | 675 | Ki (human mu opioid receptor): 3.1 nM
8 | Cc1cc(O)cc(C)c1C[C@H](N)C(=O)N(Cc1nc(-c2ccccc2F)c(C)[nH]1)C(C)C [Cpd 117] | 3.31 | 816.16 | – | 37 | – | 118 | Ki (human mu opioid receptor): 0.24 nM
9 | COc1ccc(CN(C(=O)[C@@H](N)Cc2c(C)cc(O)cc2C)[C@@H](C)c2nc(-c3ccccc3)c[nH]2)cc1C(=O)Nc1ccccc1 [Cpd 305] | – | – | 0.2 | – | 1.24 | – | –
10 | Cc1cc(O)cc(C)c1C[C@H](N)C(=O)N(Cc1ccc(C(=O)O)o1)[C@@H](C)c1nc(-c2ccccc2)c[nH]1 [Cpd 287] | – | – | 0.13 | – | – | – | EC50 ([6]; [35S]GTPγS, read-out: DOR GTP-binding Assay_v2_ EC50): > 10000 nM; DOR GTP-binding Assay v2 (% I) ([6]; % inhibition of agonist-stimulated GTPγS binding): 84.50%; response vs control in vivo at 30 mg (male CD-1 mice): 66.4%; Ki (delta opioid receptor [2]): 0.14 nM
11 | Cc1cc(O)cc(C)c1C[C@H](N)C(=O)N(Cc1nc(-c2ccc(C(F)(F)F)cc2)c(C)[nH]1)C(C)C [Cpd 149] | 1.00 | 753.53 | – | 44 | – | 408 | –
12 | CCN(C(=O)[C@@H](N)Cc1c(C)cc(O)cc1C)[C@H](c1nc(-c2ccccc2)c[nH]1)C(C)C [Cpd 170] | 26.00 | – | 0.48 | 115 | – | – | Ki (delta opioid receptor [2]): 32.6 nM
13 | C[C@@H](c1nc(-c2ccccc2)c[nH]1)N(Cc1ccc(C(=O)O)o1)C(=O)[C@@H](N)Cc1ccc(C(N)=O)cc1 [Cpd 304] | – | – | 161 | – | 119 | – | Ki (human mu opioid receptor): 41 nM
14 | Cc1cc(O)cc(C)c1C[C@H](N)C(=O)N(Cc1nc(-c2cccc(CO)c2)c(C)[nH]1)C(C)C [Cpd 130] | 1.62 | 866.39 | – | 16 | – | 712 | Ki (human mu opioid receptor): 1.6 nM
15 | Cc1cc(O)cc(C)c1C[C@H](N)C(=O)N(Cc1nc(-c2ccccc2C(F)(F)F)c(C)[nH]1)C(C)C [Cpd 151] | 24.19 | 606.38 | – | 350 | – | 1300 | –
